Results as given in patent US7892350B2, “Sacrificial agents for fly ash concrete” (Boral Material Technologies Inc., priority 2003, dated 2011).

Assays:
[1] = Adsorption/precipitation of SA or AEA in 10 wt % aqueous fly ash or cement slurries at pH 12.5; format: physicochemical; conditions: initial SA 3 mM
Method: Adsorption/Precipitation of Sacrificial Agents (SA) or Air Entrainment Agents (AEA) in 10 wt % Aqueous Fly Ash Slurries at pH 12.5:
(§1) The pH of the solutions were adjusted to 12.5 with NaOH.
Adsorption/Precipitation in FA or Cement Slurries: In this protocol, aqueous slurries containing 10 wt % FA or cement were prepared as described above, except that in this case, the cement was added directly into a solution of the SA or AEA in the following proportions: 3.0 g cement or FA, and 27 g of 3 mM sacrificial agent, or 27 g of 1050 mg/l AEA; the latter were prepared in the same way as in the precipitation test above. The residual (soluble) SA or AEA content in the solution was also determined by UV or COD.

[2] = Precipitation in slurry extract or leachate; format: physicochemical; conditions: pH 12.5, entries in parentheses
Method: as §1
Precipitation in slurry extract or leachate: To perform this test, FA or cement leachate were prepared in advance, by filtering two liters of a 10 wt % FA, or cement, slurry in 0.03N NaOH which had been left to stand under slow agitation for 30 min; 2.5 g of the filtrate solution was mixed with 22.5 g of the SA or AEA solution in a 50 ml polypropylene centrifuge tube; the latter was shaken vigorously in an orbital shaker (Eberbach Corporation) for 30 min at room temperature, centrifuged for 5 min and then the supernatant solution was filtered (0.45 μm). The SA or AEA content of the solution was determined using an Ultraviolet-Visible (UV) spectrometer or by COD (Chemical Oxygen Demand) measurement.
Entries in parentheses: % precipitation when reacted with solutions extracted from the fly ash slurries (Results in Table 5).

[3] = Paste air entrainment, Minimum air protocol
Method: Preparation of pastes: Pastes were prepared by pouring 400 g of cementitious powder in the 350-400 g of solution (water and additives) in a vessel (8.4 cm dia,×14.5 cm height) while gently stirring with a spatula; the exact quantity of water depends on the selected W/B ratio (see below); rapid hand mixing was continued for 1 minute, followed by intense stirring at 25° C. during 2 min using a hand-held mixer (BRAUN model MR400). The level of air entrained is dependent on the mode of utilisation of the mixer, namely the height of the mixer from the bottom of the vessel and the length of the mixing stroke; the following protocols were adopted.
Minimum air protocol: The BRAUN mixer is positioned at 1.0 inch from the bottom of the mixing vessel and the up-down motion of the mixer is limited to a 1.0 inch displacement; this provided ‘minimum air’ entrained air levels and is later referred to as ‘Minimum air protocol’ (Results reported in Table 6, col. 1 and Table 7).
Fluidity measurements: For all air entrainment measurements, the initial fluidity of the paste (without additives) was controlled using the ‘mini-slump’ procedure widely used for paste and grouts. In this protocol, a portion of the paste was transferred into the min-slump cone (a 2¼″ high, 1½″ bottom diameter, ¾″ top diameter cone); excess paste was skimmed-off with a straight; the cone was then raised and the spread diameter of the paste was recorded (average of two measurements). The fluidity is measured at 10 minutes after mixing. The paste is returned to the batch and reserved for subsequent AE measurements. The fluidity of the paste (without SA and AEA) is adjusted by changing the amount of water (water/cementitious ratio) which yields a spread diameter of 115±5 mm. The latter is monitored regularly.
Air entrainment measurements: For air entrainment measurements, a portion of the paste was transferred to overfill a Plexiglas cylinder (3¾ inches height, 2 inches interior diameter), which was then levelled flush to the top of the cylinder with a straight edge. The mass of the filled cylinder, minus the weight of the empty cylinder, is then recorded and used to calculate the amount of air according to the following formula: […]
This procedure was carried out at three times at 30 min. intervals (6, 36 and 66 min); the paste was let to stand at rest between measurements, and was stirred gently by hand for one minute prior to the subsequent air entrainment measurements.
Typical mixture compositions for air entrainment measurements in pastes containing a single additive using ‘Minimum air protocol’ (results shown in Table 6, col. 1): […]

[4] = Paste air entrainment, Maximum air protocol
In short: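 Pastes of 400 g cementitious powder in water plus additives, hand-mixed 1 min then mixer-stirred 2 min at 25 °C; water/binder ratio set so additive-free paste gives 115±5 mm mini-slump spread at 10 min. Air content calculated from mass of paste filling a fixed-volume cylinder at 6, 36 and 66 min, paste at rest between readings and hand-stirred 1 min beforehand.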

[5] = Air entrainment in fresh concrete (ASTM C 231-97)
Method: The sacrificial agents were added to the cementitious mixtures in several ways: • 1) mixing together with water and air entrainment agent solution • 2) premixed with the fly ash • 3) post-added into the fresh concrete which already contained the air entrainment agent.

Structure (SMILES): OCCOc1ccccc1 [EGPE, Ethylene glycol phenyl ether]
- Adsorption (wt % Adsorbed) ([1]; 10 wt % fly ash B1 (LOI 4.36%) slurry, Air 30/Air 40 0.105 wt %): 12 wt %
- Adsorption (wt % Adsorbed) ([1]; 10 wt % fly ash C1, class C (LOI 1.62%) slurry, Air 30/Air 40 0.105 wt %): 12 wt %
- Adsorption (wt % Adsorbed) ([1]; 10 wt % fly ash C2 (LOI 3.32%) slurry): 6 wt %
- Adsorption (wt % Adsorbed) ([1]; 10 wt % fly ash M1 (LOI […]) slurry, Air 30/Air 40 0.105 wt %): 4 wt %
- Adsorption (wt % Adsorbed) ([1]; 10 wt % fly ash M2 (LOI 5.34%) slurry, Air 30/Air 40 0.105 wt %): 14 wt %
- Adsorption (wt % Adsorbed) ([1]; 10 wt % fly ash M3 (LOI 11.33%) slurry, Air 30/Air 40 0.105 wt %): 14 wt %
- Adsorption (wt % Adsorbed) ([1]; 10 wt % fly ash N (LOI 0.30%) slurry): 1 wt %
- Precipitation (wt % precipitated) ([2]; solution extracted from 10 wt % fly ash B1 (LOI 4.36%) slurry): 0 wt %
- Precipitation (wt % precipitated) ([2]; solution extracted from 10 wt % fly ash C1, class C (LOI 1.62%) slurry): 0 wt %
- Precipitation (wt % precipitated) ([2]; solution extracted from 10 wt % fly ash C2 (LOI 3.32%) slurry): 0 wt %
- Precipitation (wt % precipitated) ([2]; solution extracted from 10 wt % fly ash M1 (LOI […]) slurry): 1 wt %
- Precipitation (wt % precipitated) ([2]; solution extracted from 10 wt % fly ash M2 (LOI 5.34%) slurry): 0 wt %
- Precipitation (wt % precipitated) ([2]; solution extracted from 10 wt % fly ash M3 (LOI 11.33%) slurry): 0 wt %
- Precipitation (wt % precipitated) ([2]; solution extracted from 10 wt % fly ash N (LOI 0.30%) slurry): 0 wt %
- Air entrained ([3]; 50:50 fly ash B1 (LOI 4.36%):PCA paste, 0.1 wt % Air 30 alone or with 0.05 wt % of the SA): 4 vol %
- Air entrained ([3]; 50:50 fly ash C1 (LOI 1.62%):PCA paste, 0.1 wt % Air 30 alone or with 0.05 wt % of the SA): 5 vol %
- Air entrained ([3]; 50:50 fly ash D (LOI […]):PCA paste, 0.1 wt % Air 30 alone or with 0.05 wt % of the SA): 5 vol %
- Air entrained ([3]; 50:50 fly ash M1 (LOI […]):PCA paste, 0.1 wt % Air 30 alone or with 0.05 wt % of the SA): 5 vol %
- Air entrained ([3]; 50:50 fly ash M2 (LOI 5.34%):PCA paste, 0.1 wt % Air 30 alone or with 0.05 wt % of the SA): 4 vol %
- Air entrained ([3]; 50:50 fly ash M3 (LOI 11.33%):PCA paste, 0.1 wt % Air 30 alone or with 0.05 wt % of the SA): 4 vol %
- Air entrained ([3]; 50:50 fly ash R (LOI […]):PCA paste, 0.1 wt % Air 30 alone or with 0.05 wt % of the SA): 5 vol %
- Air entrained ([3]; PCA cement paste, 0.1% SA or AEA alone, Minimum air protocol): 0 vol %
- Average of air entrained ([3]; over the fly ash:PCA pastes of Table 7, 0.1 wt % Air 30 alone or with 0.05 wt % of the SA): 4%
- Air entrained at 66 min ([4]; 50:50 fly ash B1 (LOI 4.36%):PCA paste, Air 30 (0.0125%)/NS/X=1/4/4, X = the labelled SA): 4 vol %
- Air entrained at 66 min ([4]; 50:50 fly ash B1 (LOI 4.36%):PCA paste, Air 30 (0.0125 wt %)/ND/X=1/4/4, X = the labelled SA): 14 vol %
- Air entrained at 66 min ([4]; 50:50 fly ash C1 (LOI 1.62%):PCA paste, Air 30 (0.0125%)/NS/X=1/4/4, X = the labelled SA): 9 vol %
- Air entrained at 66 min ([4]; 50:50 fly ash C1 (LOI 1.62%):PCA paste, Air 30 (0.0125 wt %)/ND/X=1/4/4, X = the labelled SA): 19 vol %
- Air entrained at 66 min ([4]; 50:50 fly ash D (LOI […]):PCA paste, Air 30 (0.0125%)/NS/X=1/4/4, X = the labelled SA): 15 vol %
- Air entrained at 66 min ([4]; 50:50 fly ash D (LOI […]):PCA paste, Air 30 (0.0125 wt %)/ND/X=1/4/4, X = the labelled SA): 22 vol %
- Air entrained at 66 min ([4]; 50:50 fly ash M1 (LOI […]):PCA paste, Air 30 (0.0125%)/NS/X=1/4/4, X = the labelled SA): 11 vol %
- Air entrained at 66 min ([4]; 50:50 fly ash M1 (LOI […]):PCA paste, Air 30 (0.0125 wt %)/ND/X=1/4/4, X = the labelled SA): 18 vol %
- Air entrained at 66 min ([4]; 50:50 fly ash M2 (LOI 5.34%):PCA paste, Air 30 (0.0125%)/NS/X=1/4/4, X = the labelled SA): 3 vol %
- Air entrained at 66 min ([4]; 50:50 fly ash M2 (LOI 5.34%):PCA paste, Air 30 (0.0125 wt %)/ND/X=1/4/4, X = the labelled SA): 11 vol %
- Air entrained at 66 min ([4]; 50:50 fly ash M3 (LOI 11.33%):PCA paste, Air 30 (0.0125%)/NS/X=1/4/4, X = the labelled SA): 3 vol %
- Air entrained at 66 min ([4]; 50:50 fly ash M3 (LOI 11.33%):PCA paste, Air 30 (0.0125 wt %)/ND/X=1/4/4, X = the labelled SA): 13 vol %
- Air entrained at 66 min ([4]; 50:50 fly ash R (LOI […]):PCA paste, Air 30 (0.0125%)/NS/X=1/4/4, X = the labelled SA): 11 vol %
- Air entrained at 66 min ([4]; 50:50 fly ash R (LOI […]):PCA paste, Air 30 (0.0125 wt %)/ND/X=1/4/4, X = the labelled SA): 18 vol %
- Air entrained ([4]; PCA cement paste, 0.0125% SA or AEA alone, Maximum air protocol): 1 vol %
- Air entrained at 66 min ([4]; PCA paste, no fly ash, Air 30 (0.0125 wt %)/ND/X=1/4/4, X = the labelled SA): 23 vol %
- air entrained (average) ([4]; fly ash:cement pastes, SA added at four (4) times the fixed Air 30 dosage (0.0125%)): 7%
- Average of air entrained at 66 min ([4]; over the fly ash:PCA pastes of Table 9, Air 30 (0.0125 wt %)/ND/X=1/4/4, X = the labelled SA): 17%
- Air ([5]; 25% B1 fly ash (LOI 1.9%):PCA concrete, Air 40 0.003 % CM + EGPE 0.100 % CM): 5.1%
- Air ([5]; 25% B1 fly ash (LOI 1.9%):PCA concrete, Air 40 0.006 % CM + EGPE 0.100 % CM): 6.2%
- Air ([5]; 25% B1 fly ash (LOI 1.9%):PCA concrete, Air 40 0.009 % CM + EGPE 0.100 % CM): 7.4%
- Air ([5]; Air 30 0.006 % CM, EGPE 0.100 % CM added during batching, PCA cement, B1 fly ash 25 %, LOI […]): 11.4%
- Air ([5]; Air 30 0.006 % CM, EGPE 0.100 % CM premixed with fly ash, PCA cement, B1 fly ash 25 %, LOI […]): 10.0%
- Air ([5]; Air 40 0.003 % CM, EGPE 0.100 % CM added during batching, PCA cement, B1 fly ash 25 %, LOI […]): 2.7%
- Air ([5]; Air 40 0.003 % CM, EGPE 0.100 % CM premixed with fly ash, PCA cement, B1 fly ash 25 %, LOI […]): 2.9%
- Air ([5]; Air 40 0.008 % CM, EGPE 0.100 % CM added during batching, PCA cement, B1 fly ash 25 %, LOI […]): 4.9%
- Air ([5]; Air 40 0.008 % CM, EGPE 0.100 % CM premixed with fly ash, PCA cement, B1 fly ash 25 %, LOI […]): 4.7%
- % air, levelling-off ([5]; B1 fly ash ([…] LOI):PCA concrete, Air 40 0.003 wt %, increasing dosages of EGPE): 6-8 vol %
- % air ([5]; B1 fly ash ([…] LOI):PCA concrete, EGPE 0.1 wt % with increasing Air 40 dosage): approx 5%
- Air ([5]; PCA cement concrete, no fly ash, Air 40 0.003 % CM + EGPE 0.050 % CM): 6.5%
- Air ([5]; PCA cement concrete, no fly ash, Air 40 0.003 % CM + EGPE 0.100 % CM): 6.5%
- Air ([5]; PCA cement concrete, no fly ash, Air 40 0.003 % CM + EGPE 0.200 % CM): 6.2%
- Air ([5]; PCA cement concrete, no fly ash, Air 40 0.006 % CM + EGPE 0.050 % CM): 8.1%
- Air ([5]; PCA cement concrete, no fly ash, Air 40 0.006 % CM + EGPE 0.100 % CM): 8.3%
- Air ([5]; PCA cement concrete, no fly ash, Air 40 0.006 % CM + EGPE 0.200 % CM): 8.0%
- Air ([5]; PCC cement concrete, no fly ash, no Air 40, EGPE alone 0.010 % CM): 1.9%
- Air ([5]; PCC cement concrete, no fly ash, no Air 40, EGPE alone 0.030 % CM): 2.0%
- Air ([5]; PCC cement concrete, no fly ash, no Air 40, EGPE alone 0.050 % CM): 2.0%
- Air ([5]; PCC cement concrete, no fly ash, no Air 40, EGPE alone 0.100 % CM): 2.1%
- increase in air entrained above the control values ([5]; cement-only concrete without air entrainment agents, various dosages): about 1%
